# In article PMC11672292, “Discovery of Balasubramide Derivative with Tissue‐Specific Anti‐Inflammatory Activity Against Acute Lung Injury by Targeting VDAC1” (Advanced Science, 2024):
# Tests used:
# [1] = biological target: T1, VDAC1 oligomerization in LPS-primed BMDMs (Mus musculus, UniProt Q60932); test: VDAC1 cross-linking (oligomerization) assay; format: cell-based; conditions: DSS cross-linking, immunoblotting
# T1 construct: endogenous in cells; host or cells: primary bone marrow-derived macrophages (BMDMs) from C57BL/6J mice
# Method: The cells (BMDM, iBMDM, RAW264.7, and HEK293T) treated with (+)3C‐20 were washed twice by PBS and lysed in RIPA. The lysate was incubated for 30 min at 30 °C with the cross‐linking reagent DSS (1 mM), mixed with 4 × laemmli buffer with DTT, subjected to SDS‐PAGE and immunoblotting analyzed with anti‐VDAC1 antibody.
# [2] = test system: LPS-stimulated RAW264.7 cells; test: LPS-induced TNF-α release in RAW264.7 macrophages (ELISA); format: cell-based, mouse; conditions: Mus musculus, RAW264.7 cells
# Method: The anti‐inflammatory effects of all (+)‐balasubramide derivatives were evaluated in Lipopolysaccharide (LPS, L2630, Sigma–Aldrich, USA)‐induced macrophage inflammation model. RAW264.7 cells were pretreated with various compounds or (+)3C‐20 at different concentrations for 3 h, and then stimulated with LPS (100 ng mL^−1) for 2 h for the detection of pro‐inflammatory factors expressions. Similarly, following 3 h co‐incubation with (+)3C‐20, mouse BMDMs were stimulated with LPS (100 ng mL^−1) for 3 h. TNF‐α protein in the culture medium supernatant was measured by a commercial ELISA kit (#1 217 202, DAKEWE, China) following the manufacture's protocols.
# mice = test: Subacute toxicity, 28 consecutive days of administration; format: in vivo
# sepsis-induced ALI mice = test: Sepsis-induced acute lung injury (ALI) model (i.p. LPS); format: in vivo, mouse
# Method: For sepsis‐induced ALI model, C57BL/6J mice were randomly divided into five experimental groups (n = 8–9) according to weight, including control group (PBS+Vehicle), vehicle group (LPS+Vehicle), Dexamethasone treated group (LPS+DEX at 5 mg kg^−1), (+)3C‐20 treated group (LPS+3C‐20 at 10 mg kg^−1 or 50 mg kg^−1). All mice were weighed and intraperitoneally administered DEX, (+)3C‐20 (dissolved in vehicle solution) or vehicle (5% DMSO, 20% BASF Kolliphor HS15, 75% Saline) daily for 3 consecutive days with the determined injection volume (10 mL kg^−1). After the third administration, except for the control group, mice were intraperitoneally injected with LPS (10 mg kg^−1, 10 mL kg^−1) dissolved in PBS 2 h after vehicle or compound pretreatment. […]
# After mice were sacrificed, the left lung tissue fixed with 4% paraformaldehyde was embedded in paraffin, cut into 5 µm thick sections, and stained with hematoxylin and eosin. The slices were scanned with light microscopy (BX53, Olympus, Japan) to evaluate gross morphology and lung damage and inflammation, then the alveolar cells area of the image obtained was calculated with Image J 1.51 (NIH, USA), and the histopathological lung injury scores were determined as previously reported.^[ [62] ^]
# BMDMs = test: NLRP3 inflammasome-induced pyroptosis, LDH release; format: cell-based, mouse; conditions: 10 µM, LPS plus ATP, Nigericin or MSU, compared with parent compound (+)3J
# Method: According to previous reports,^[ [65] ^] NLRP3 inflammasome was activated in BMDMs primed with LPS (100 ng mL^−1) for 3 h, and the inflammasome was further assembled using ATP (5 mM, A6419, Sigma–Aldrich, USA) for 45 min, or Nigericin ([…], T3092, TargetMol, USA) for 1 h, or Monosodium Urate Crystal (MSU, 600 µg mL^−1, T41242, TargetMol, USA) for 6 h. To investigate the effect of compounds in NLRP3 inflammasome activation, the cells pretreated with compounds were stimulated with LPS for 3 h and followed by stimulation with ATP for another 45 min, or nigericin for another 1 h, or MSU for another 6 h to activate NLRP3 inflammasome.
# Cell culture supernatants were collected and centrifuged to remove cell debris at 800 rpm for 5 min. LDH measurement was performed with an LDH cytotoxicity assay kit (C0017, Beyotime, China) according to the manufacture's instructions. Data were plotted normalizing the OD490 value of the model group as 100%.
# in vivo = conditions: mouse, iv
# Source text: To test the safety of (+)3C‐20 in mice, as previously reported,^[ [31] ^] we estimated the acute toxicity of (+)3C‐20 in mice using a sequential method.
# [3] = biological target: T2, recombinant human VDAC1 protein (rhVDAC1) (Homo sapiens, UniProt P21796); test: Surface plasmon resonance (SPR); format: binding
# T2 construct: purchased Atagenix, China
# Method: To investigate the interaction of (+)3C‐20 and recombinant human VDAC1 protein (rhVDAC1), SPR experiments were performed. The overall experimental procedures were based on previous reports and had been improved with some modifications.^[ [35] ^] Briefly, 10 µM (+)3C‐20 was printed on the 3D photo‐crosslinking chip via the Biodot AD1520 chip array printer through a C─H covalent bond connection, and DMSO was conducted as a negative control at the same time. Following the vacuum‐dying and photo‐crosslinking reaction of the chip, the surface of the chip was flowed through with different concentrations (10, 40, 160, 640, 2560 nmol L^−1) of rhVDAC1 protein in PBST at 0.5 µL s^−1 for 600 s. Then, the proteins were dissociated from the surface of the chip in Glycine‐HCl (pH 2.0) at 2 µL s^−1 for 360 s. The binding signals (RU) were detected dynamically using Berthold bScreen LB 991. The RU responses of (+)3C‐20 with rhVDAC1 protein were recorded and ranked to determine the interaction intensity level, and the binding curve and affinity data were calculated by the system according to the Langmuir binding model.
# RAW264.7 cells = test: CCK-8 cell viability assay; format: cell-based, mouse; conditions: 10 μM, 24 h
# Method: Cell viability was determined by CCK‐8 assay. RAW264.7 cells or mouse BMDMs cultured in a 96‐well plate were pretreated with various compounds at 10 µM or different concentrations of (+)3C‐20 for 24 h when cells reached 70% confluence and then were treated with DMEM containing 5 µL CCK‐8 reagent (A311, Vazyme, China) in a humidified atmosphere of 5% CO2 and 95% air for 1 h at 37 °C. The UV absorption values of the medium with CCK‐8 were measured at 450 nm in a ThermoFisher plate‐reader (VL0L0TD2, Waltham, USA).
# T2 sequence (P21796 whole entry): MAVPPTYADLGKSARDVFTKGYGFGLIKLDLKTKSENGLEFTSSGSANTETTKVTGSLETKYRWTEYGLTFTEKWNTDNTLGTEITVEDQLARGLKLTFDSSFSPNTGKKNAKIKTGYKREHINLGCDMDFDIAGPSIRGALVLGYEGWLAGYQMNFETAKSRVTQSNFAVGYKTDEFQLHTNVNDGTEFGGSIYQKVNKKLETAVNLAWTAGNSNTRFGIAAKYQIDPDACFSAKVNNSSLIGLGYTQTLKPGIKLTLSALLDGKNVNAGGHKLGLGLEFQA
# T1 sequence (Q60932 14-296): as the sequence (P21796 whole entry) above, with T55N, M129V, A160S, I227V counted along it
structure (smiles),measurement,setting,value
O=C(CCc1ccc(C(F)(F)F)cc1)O[C@@H]1C(=O)NCCc2c([nH]c3ccccc23)[C@H]1c1ccc(C(F)(F)F)cc1 [(+)3C-20],VDAC1 oligomerization,[1],inhibit VDAC1 oligomerization in a dose‐dependent manner
same,inhibition at 10 µM,"[2]; 10 μM + LPS (100 ng/mL), n = 3, read-out: Inhibition rate (%) of TNF-α release",82 ± 3.93%
same,IC50,"[2]; read-out: IC50, inhibition of LPS-induced TNF-α release",11.8 µM
same,"effects on the liver (AST, ALT)","mice; 50 mg kg^−1, 28 days",no harmful effects
same,changes in body weight or relative organ weight,"mice; 28 consecutive days of administration, 50 mg/kg",did not observe any harmful changes
same,secretion of TNF-α in serum,"sepsis-induced ALI mice; i.p. 10 or 50 mg kg^−1, 3 days pretreatment, LPS 10 mg kg^−1 i.p.",dose‐dependently decreased
same,histopathological damage of lung (H&E),"sepsis-induced ALI mice; pretreated at 10 or 50 mg kg^−1, versus vehicle group",less histopathological damage
same,"NLRP3 inflammasome activators-stimulated cell death (membrane blebbing, LDH release)",BMDMs,significantly decreased
same,LD50,in vivo,185 mg/kg
same,Kd,"[3]; hVDAC1, printed in picture of Figure 5G",3.95 µM
same,Kd,[3]; rhVDAC1,~3.95 µM
same,cell viability,RAW264.7 cells,103.97 ± 3.88
